Data on six compounds can be found in patent EP0808832B1, “Fluorinated vitamin D3 analogs” (F. HOFFMANN-LA ROCHE AG, priority 1996, dated 1997).

Values joined by “and” are separate entries in the source; they are usually repeats but may differ in a detail not shown here. Equal values may be shown once. Read-outs that look alike come from different tables or passages of the source.

The test system of series [1] is rats are ovariectomized (Ovx). It is filed as in vivo, rat. Particulars: for Whole Femur BMD: 3 to 6 weeks post-ovariectomy, right femur; for Urine Calcium/Creatinine 6th wk): 0.20 µg/kg once a day by mouth. An excerpt: Three month old rats are ovariectomized (Ovx) and administered either 1,25-dihydroxy vitamin D3 (vit. D in Table) or one of the compounds of the present invention once a day by mouth starting at 3 weeks post-ovariectomy and continuing until final sacrifice at 6 weeks post-ovariectomy. Control groups, both sham (rats that were not ovariectomized) and Ovx, received vehicle only. Blood and urine samples were collected twice, at 4 weeks post-ovariectomy and again at the 6 week mark and the amount of serum and urine calcium was determined. The final femoral calcium determined upon sacrifice 6 weeks post- ovariectomy.
The bone mineral density (BMD) of the right femur was determined by using a High Resolution Software Package on a QDR-1000W Bone Densitometer™ (Hologic, Walthan, MA). The animals were scanned by placing them on a scanning block in a supine position such that the right leg was perpendicular to the main body and the tibia was perpendicular to the femur.
The increase in the bone mineral density and the amount of calcium in the urine and the serum for some of the compounds of this invention in this assay are given in the table below: […]

Series [2] deals with women with postmenopausal osteoporosis. Particulars: 0.25 microgram twice daily, after 3 years, mild to moderate disease, compared with elemental calcium 1000 mg/day; cited from earlier work.

Regarding `C=C1/C(=C\C=C2/CCC[C@]3(C)[C@@H](C4(CC#CC(C)(C)O)CC4)CC[C@@H]23)C[C@@H](O)C[C@@H]1F` [Cpd. 58, 1-α-Fluoro-25-hydroxy-23-yne-20,21,28-cyclopropylcholecalciferol], the Whole Femur BMD in series [1] (5.00 µg/kg once a day by mouth) amounted to 0.236 g/cm^2. As for `C=C1/C(=C\C=C2/CCC[C@]3(C)[C@@H](C4(C/C=C/C(O)(C(F)(F)F)C(F)(F)F)CC4)CC[C@@H]23)C[C@@H](O)C[C@@H]1F` [Cpd. 60, 1-α-Fluoro-25-hydroxy-23E-ene-26,27-hexafluoro-20,21,28-cyclopropyl-cholecalciferol], the Whole Femur BMD in series [1] (0.10 µg/kg once a day by mouth) stood at 0.242 g/cm^2. In series [1] (1.50 µg/kg once a day by mouth), `C=C1/C(=C\C=C2/CCC[C@]3(C)C([C@@H](C)C/C=C/C(C)(O)C(F)(F)F)=CC[C@@H]23)C[C@@H](O)C[C@@H]1F` (stereo partly drawn) [Cpd. 57, 1-α-Fluoro-25(RS)-hydroxy-16,23E-diene-26-trifluoro-20-epi-cholecalciferol] came in with a Whole Femur BMD of 0.248 g/cm^2. In the case of `C=C1/C(=C\C=C2/CCC[C@]3(C)[C@@H](C4(CC#CC(O)(C(F)(F)F)C(F)(F)F)CC4)CC[C@@H]23)C[C@@H](O)C[C@@H]1F` [Cpd. 61, 1-α-Fluoro-25-hydroxy-23-yne-26,27-hexafluoro-20,21,28-cyclopropyl-cholecalciferol], the Whole Femur BMD in series [1] (0.50 µg/kg once a day by mouth) is 0.243 g/cm^2. Compound `C=C1/C(=C\C=C2/CCC[C@]3(C)C([C@@H](C)CC#CC4(O)CCCC4)=CC[C@@H]23)C[C@@H](O)C[C@@H]1F` [Cpd. 59, 1-α-Fluoro-25-hydroxy-16-ene-23-yne-25,26,27-cyclopentyl-20-epi-cholecalciferol] came in with a Whole Femur BMD in series [1] (2.00 µg/kg once a day by mouth) of 0.233 g/cm^2.

With `C=C1/C(=C\C=C2/CCC[C@]3(C)[C@@H]([C@H](C)CCCC(C)(C)O)CC[C@@H]23)C[C@@H](O)C[C@@H]1O` [Vit D, 1,25-dihydroxy vitamin D3], the “Urine Calcium/Creatinine 6th wk)” value is 1.35 mg/dL and 1.44 mg/dL in series [1]; 0.76 mg/dL and 1.44 mg/dL and 1.48 mg/dL in series [1] (listed as Vit. D). Further, the “lower rate of new vertebral fractures” value in series [2] was 3 fold.
